Test results: patent US8426447B2, “Spiro-tricyclic ring compounds as beta-secretase modulators and methods of use” (Amgen Inc., priority 2008, dated 2013)

Legend:
BACE1 [1] = molecular target: T1, BACE1 (Homo sapiens, UniProt P56817); assay: In Vitro Enzymatic BACE FRET (Fluorescence Resonance Energy Transfer) Assay; type: biochemical; settings: read-out: BACE1 FRET assay
Outline: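 First, compound and enzyme sit in 0.05 M acetate (pH 4.2, 10% DMSO final, 100 uM nonionic genapol). Next, 50 nM quenched FRET peptide starts the reaction for one hour. Last, Tris neutralises the mixture before fluorescence is measured.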

BACE1 [2] = molecular target: T1, BACE1; assay: In Vitro BACE Cell-based Assay (HEK cell assay): Aβ40 in conditioned medium of cells stably expressing Amyloid Precursor Protein, sandwich ELISA; settings: read-out: HEK cell assay
Outline: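 Conditioned medium Aβ40 by ELISA: pAb40 capture 3 h 4° C., biotin-6E10 detection 2 h 4° C., Streptavidin-Europium TRF. IC50 fitted from % control.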

[3] = in vitro BACE FRET enzyme assay, IC50 class symbols
[4] = HEK cell-based assay, Aβ40 in conditioned medium, IC50 class symbols

T1 sequence (P56817 46-501, species assumed): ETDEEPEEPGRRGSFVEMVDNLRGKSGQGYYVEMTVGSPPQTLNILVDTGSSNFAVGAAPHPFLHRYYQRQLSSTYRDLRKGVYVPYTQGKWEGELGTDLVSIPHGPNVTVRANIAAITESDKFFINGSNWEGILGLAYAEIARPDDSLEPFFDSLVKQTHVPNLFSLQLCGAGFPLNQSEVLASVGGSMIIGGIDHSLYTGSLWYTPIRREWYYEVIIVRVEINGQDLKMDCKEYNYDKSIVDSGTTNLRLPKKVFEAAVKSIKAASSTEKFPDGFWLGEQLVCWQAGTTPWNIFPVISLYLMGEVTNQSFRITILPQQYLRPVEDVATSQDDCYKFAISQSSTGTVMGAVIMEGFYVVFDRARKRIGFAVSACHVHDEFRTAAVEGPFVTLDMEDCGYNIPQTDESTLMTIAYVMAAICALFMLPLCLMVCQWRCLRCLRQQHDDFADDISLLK

NC1=N[C@@]2(CO1)c1cc(-c3cncnc3)ccc1Oc1c(F)cc(OCC3CCOCC3)cc12 [compound 417]
IC50 (BACE1 [1]; [3]): < 0.1 µM
IC50 (BACE1 [2]; [4]): < 0.1 µM

CC(C)(C)C#Cc1ccc2c(c1)[C@]1(COC(N)=N1)c1cc(-c3ccc(F)nc3)ccc1O2 [147a]
IC50 (BACE1 [1]; Table III, IC50's in uM ranges): < 0.1 µM
IC50 (BACE1 [2]; Table III, IC50's in uM ranges): 0.1 to 1 µM

Cn1cc(-c2cc3c(cn2)Oc2ccc(-c4cccnc4F)cc2[C@@]32COC(N)=N2)cn1 [compound 333]
IC50 (BACE1 [1]; [3]): < 0.1 µM
IC50 (BACE1 [2]; [4]): < 0.1 µM

NC1=N[C@@]2(CO1)c1cc(-c3cccnc3)ccc1Oc1ccc(-c3ccc(F)nc3)cc12 [compound 969]
IC50 (BACE1 [1]): < 0.1 µM
IC50 (BACE1 [2]): < 0.1 µM

CC(C)(C)CCOc1nccc2c1[C@@]1(COC(N)=N1)c1cc(-c3cccnc3)ccc1O2 [compound 931]
IC50 (BACE1 [1]): 1 to 5 µM
IC50 (BACE1 [2]): > 5 µM

NC1=N[C@]2(CO1)c1cc(-c3ccccc3)ccc1Oc1ncccc12 [compound 598]
IC50 (BACE1 [1]; Table IV, class symbols): 1 to 5 µM
IC50 (BACE1 [2]; Table IV, class symbols): > 5 µM

COC(C)(C)COc1cnc2c(c1)[C@]1(COC(N)=N1)c1cc(-c3ccccc3)ccc1O2 [compound 350]
IC50 (BACE1 [1]; [3]): < 0.1 µM
IC50 (BACE1 [2]; [4]): < 0.1 µM

Cc1ccc(-c2cnc3c(c2)[C@]2(COC(N)=N2)c2cc(-c4cncnc4)ccc2O3)cc1 [compound 578]
IC50 (BACE1 [1]; Table IV, class symbols): < 0.1 µM
IC50 (BACE1 [2]; Table IV, class symbols): < 0.1 µM

Cc1ccccc1-c1ccc2c(c1)[C@]1(COC(N)=N1)c1cccnc1O2 [compound 609]
IC50 (BACE1 [1]; Table IV, class symbols): > 5 µM
IC50 (BACE1 [2]; Table IV, class symbols): > 5 µM

CC(C)(C)COc1ccc2c(c1)[C@]1(COC(N)=N1)c1cc(C3=CCCCC3)ccc1O2 [compound 803]
IC50 (BACE1 [1]; Table IV, class symbols): < 0.1 µM
IC50 (BACE1 [2]; Table IV, class symbols): 1 to 5 µM

CC(C)CCCOc1nccc2c1[C@@]1(COC(N)=N1)c1cc(-c3cccnc3)ccc1O2 [compound 843]
IC50 (BACE1 [1]; Table IV, class symbols): > 5 µM
IC50 (BACE1 [2]; Table IV, class symbols): > 5 µM

CC(C)(C)/C=C/c1cnc2c(c1)[C@]1(COC(N)=N1)c1cc(-c3cccnc3F)ccc1O2 [compound 380]
IC50 (BACE1 [1]; [3]): < 0.1 µM
IC50 (BACE1 [2]; [4]): < 0.1 µM

CC(C)(C)COc1ccc2c(c1)[C@]1(COC(N)=N1)c1cc(-c3ccc(Br)nn3)ccc1O2 [compound 970]
IC50 (BACE1 [1]): 0.1 to 1 µM
IC50 (BACE1 [2]): > 5 µM

NC1=N[C@]2(CO1)c1cc(-c3ccc(F)nc3)ccc1Oc1ncc(C3=CCOCC3)cc12 [compound 716]
IC50 (BACE1 [1]): 1 to 5 µM
IC50 (BACE1 [2]): 1 to 5 µM

NC1=NC2(CO1)c1cc(-c3cccnc3)ccc1Oc1ccc(-c3cccnc3)cc12 [Example 123, 2′,7′-di(pyridin-3-yl)-5H-spiro[oxazole-4,9′-xanthen]-2-amine]
IC50 (BACE1 [1]; Table III, IC50's in uM ranges): < 0.1 µM
IC50 (BACE1 [2]; Table III, IC50's in uM ranges): < 0.1 µM

COC(C)(C)C#Cc1ccc2c(c1)[C@@]1(COC(N)=N1)c1cc(-c3cccnc3)cnc1O2 [208a]
IC50 (BACE1 [1]; Table III, IC50's in uM ranges): 0.1 to 1 µM
IC50 (BACE1 [2]; Table III, IC50's in uM ranges): 0.1 to 1 µM

CC(C)(C)COc1ccc2c(c1)[C@@]1(COC(N)=N1)c1cc(-c3ncccn3)ccc1O2 [compound 186]
IC50 (BACE1 [1]; Table III, IC50's in uM ranges): < 0.1 µM
IC50 (BACE1 [2]; Table III, IC50's in uM ranges): < 0.1 µM

CC(C)C(O)COc1ccc2c(c1)[C@]1(COC(N)=N1)c1cc(-c3cccnc3)ccc1O2 (some centres unmarked) [compound 866]
IC50 (BACE1 [1]; Table IV, class symbols): < 0.1 µM
IC50 (BACE1 [2]; Table IV, class symbols): 0.1 to 1 µM

Cc1ccc2c(c1)Oc1ccc(-c3cccc(Cl)c3)cc1C21COC(N)=N1 (centres unmarked) [Example 25, 2′-(3-chlorophenyl)-6′-methylspiro[1,3-oxazole-4,9′-xanthen]-2-amine]
IC50 (BACE1 [1]; Table 1): > 5 µM
IC50 (BACE1 [2]; Table 1, Aβ40, 24 h incubation): 1 to 5 µM

CC(C)(C)COc1ccc2c(c1C#N)[C@]1(COC(N)=N1)c1cc(-c3cccnc3)ccc1O2 [compound 943]
IC50 (BACE1 [1]): < 0.1 µM
IC50 (BACE1 [2]): 0.1 to 1 µM

CC(C)(C)COc1ccc2c(c1)[C@]1(COC(N)=N1)c1cc(C(=O)N3CCCC3)ccc1O2 [218b]
IC50 (BACE1 [1]; Table III, IC50's in uM ranges): 0.1 to 1 µM
IC50 (BACE1 [2]; Table III, IC50's in uM ranges): 0.1 to 1 µM

N#Cc1cccc(-c2cc3c(cn2)Oc2ccc(-c4cccnc4F)cc2[C@@]32COC(N)=N2)c1 [compound 373]
IC50 (BACE1 [1]; [3]): < 0.1 µM
IC50 (BACE1 [2]; [4]): < 0.1 µM

CC(=O)c1ccccc1-c1ccc2c(c1)[C@@]1(COC(N)=N1)c1cc(OCC(C)(C)C)ccc1O2 [compound 974]
IC50 (BACE1 [1]): 0.1 to 1 µM
IC50 (BACE1 [2]): 1 to 5 µM

CCOC(C)(C)COc1ccc2c(c1)[C@]1(COC(N)=N1)c1cc(-c3cccnc3)ccc1O2 [compound 172]
IC50 (BACE1 [1]; Table III, IC50's in uM ranges): < 0.1 µM
IC50 (BACE1 [2]; Table III, IC50's in uM ranges): < 0.1 µM

COC(=O)/C=C/c1ccc2c(c1)[C@@]1(COC(N)=N1)c1cc(-c3cccnc3)ccc1O2 [compound 918]
IC50 (BACE1 [1]; Table IV, class symbols): 0.1 to 1 µM
IC50 (BACE1 [2]; Table IV, class symbols): 0.1 to 1 µM

N#Cc1ccc(-c2cnc3c(c2)[C@]2(COC(N)=N2)c2cc(-c4cncnc4)ccc2O3)cc1 [compound 473]
IC50 (BACE1 [1]): < 0.1 µM
IC50 (BACE1 [2]; HEK cells): < 0.1 µM

COC1CN(c2ccc3c(c2)[C@]2(COC(N)=N2)c2cc(-c4cccnc4)ccc2O3)C1 [compound 604]
IC50 (BACE1 [1]; Table IV, class symbols): < 0.1 µM
IC50 (BACE1 [2]; Table IV, class symbols): < 0.1 µM

CC(C)(O)C#Cc1ccc2c(c1)[C@@]1(COC(N)=N1)c1cc(Br)cnc1O2 [compound 173]
IC50 (BACE1 [1]; Table III, IC50's in uM ranges): 1 to 5 µM
IC50 (BACE1 [2]; Table III, IC50's in uM ranges): > 5 µM

CC(C)OC1CN(c2ccc3c(c2)[C@]2(COC(N)=N2)c2cc(-c4cccnc4)ccc2O3)C1 [compound 384]
IC50 (BACE1 [1]; [3]): < 0.1 µM
IC50 (BACE1 [2]; [4]): < 0.1 µM

NC1=N[C@@]2(CO1)c1cc(-c3cccnc3F)ccc1Oc1cnc(-c3cccnc3F)cc12 [compound 550]
IC50 (BACE1 [1]; Table IV, class symbols): < 0.1 µM
IC50 (BACE1 [2]; Table IV, class symbols): 0.1 to 1 µM

COC(C)(C)CCc1ccc2c(c1)[C@]1(COC(N)=N1)c1cc(-c3cccnc3)ccc1O2 [compound 1001]
IC50 (BACE1 [1]): < 0.1 µM
IC50 (BACE1 [2]): < 0.1 µM

CCc1cc2c3c(ccc2o1)Oc1ncc(-c2cncnc2)cc1[C@]31COC(N)=N1 [compound 769]
IC50 (BACE1 [1]): 0.1 to 1 µM
IC50 (BACE1 [2]): 1 to 5 µM

NC1=N[C@]2(CO1)c1cc(C3=CCSCC3)ccc1Oc1ccc(-c3cncnc3)cc12 [compound 831]
IC50 (BACE1 [1]; Table IV, class symbols): < 0.1 µM
IC50 (BACE1 [2]; Table IV, class symbols): < 0.1 µM

Cc1c(OCC(C)(C)O)ccc2c1[C@]1(COC(N)=N1)c1cc(-c3cccnc3)ccc1O2 [compound 907]
IC50 (BACE1 [1]; Table IV, class symbols): < 0.1 µM
IC50 (BACE1 [2]; Table IV, class symbols): < 0.1 µM

Cn1cc(-c2cc3c(cn2)Oc2ccc(-c4cccc(Cl)c4)cc2[C@@]32COC(N)=N2)cn1 [compound 329]
IC50 (BACE1 [1]; [3]): < 0.1 µM
IC50 (BACE1 [2]; [4]): < 0.1 µM

N#Cc1ccccc1Oc1ccc2c(c1)[C@]1(COC(N)=N1)c1cc(-c3cncnc3)ccc1O2 [compound 965]
IC50 (BACE1 [1]): 0.1 to 1 µM
IC50 (BACE1 [2]): > 5 µM

CC(C)(C)OC(=O)Cc1ccc2c(c1)[C@]1(COC(N)=N1)c1cc(-c3cccnc3)ccc1O2 [compound 706]
IC50 (BACE1 [1]): 0.1 to 1 µM
IC50 (BACE1 [2]): 0.1 to 1 µM

Cn1cc(-c2ccc3c(c2)[C@]2(COC(N)=N2)c2cc(-c4cccnc4F)ccc2O3)cn1 [compound 642]
IC50 (BACE1 [1]; Table IV, class symbols): < 0.1 µM
IC50 (BACE1 [2]; Table IV, class symbols): < 0.1 µM

CC(C)(C)CCc1cc2c(cn1)Oc1ccc(-c3cncnc3)cc1[C@@]21COC(N)=N1 [compound 455]
IC50 (BACE1 [1]): < 0.1 µM
IC50 (BACE1 [2]; HEK cells): < 0.1 µM

NC1=N[C@@]2(CO1)c1cc(-c3cc(Cl)ccc3F)ccc1Oc1cnc(C3=CCOCC3)cc12 [compound 424]
IC50 (BACE1 [1]): < 0.1 µM
IC50 (BACE1 [2]; HEK cells): < 0.1 µM

CC(C)(C)COc1ccc2c(c1)[C@]1(COC(N)=N1)c1cc(C(=O)N3CCC3)ccc1O2 [compound 608]
IC50 (BACE1 [1]; Table IV, class symbols): 0.1 to 1 µM
IC50 (BACE1 [2]; Table IV, class symbols): 0.1 to 1 µM

CC(C)(C)C#Cc1ccc2c(c1)[C@]1(COC(N)=N1)c1nc(-c3cccnc3)ccc1O2 [compound 697]
IC50 (BACE1 [1]): 0.1 to 1 µM
IC50 (BACE1 [2]): 1 to 5 µM

Cc1ccc(-c2ccc3c(c2)[C@]2(COC(N)=N2)c2cc(OCC(C)(C)C)ccc2O3)cn1 [compound 786]
IC50 (BACE1 [1]): 0.1 to 1 µM
IC50 (BACE1 [2]): 0.1 to 1 µM

NC1=N[C@]2(CO1)c1cc(C#CC3(O)CCC3)ccc1Oc1ccc(-c3cccnc3)cc12 [compound 942]
IC50 (BACE1 [1]): < 0.1 µM
IC50 (BACE1 [2]): < 0.1 µM

COc1cc(F)c2c(c1)[C@@]1(COC(N)=N1)c1cc(-c3cncnc3)cnc1O2 [compound 585]
IC50 (BACE1 [1]; Table IV, class symbols): > 5 µM
IC50 (BACE1 [2]; Table IV, class symbols): > 5 µM

NC1=N[C@@]2(CO1)c1cc(-c3cccnc3)ccc1Oc1cnc(-c3cccnc3)cc12 [compound 184]
IC50 (BACE1 [1]; Table III, IC50's in uM ranges): < 0.1 µM
IC50 (BACE1 [2]; Table III, IC50's in uM ranges): < 0.1 µM

COc1cc(-c2cc3c(cn2)Oc2ccc(-c4cccnc4F)cc2[C@@]32COC(N)=N2)ccn1 [compound 430]
IC50 (BACE1 [1]): < 0.1 µM
IC50 (BACE1 [2]; HEK cells): 0.1 to 1 µM

NC1=N[C@@]2(CO1)c1cc(-c3cccnc3F)ccc1Oc1ccc(-c3ccncc3)nc12 [compound 402]
IC50 (BACE1 [1]; [3]): < 0.1 µM
IC50 (BACE1 [2]; [4]): < 0.1 µM

CC1(COc2ccc3c(c2)[C@@]2(COC(N)=N2)c2cc(-c4cccc(Cl)c4)cnc2O3)COC1 [compound 772]
IC50 (BACE1 [1]): < 0.1 µM
IC50 (BACE1 [2]): 0.1 to 1 µM
